Values joined by “and” are separate entries in the source; they are usually repeats but may differ in a detail not shown here. Equal entries are not always repeated. “Also recorded” adds a separate entry of the source. Where two headings read alike, the source gives them in different places.
Assays:
[1] = molecular target: T1, USP7asoc (active site only cysteine) (Homo sapiens, UniProt Q93009, C300S/C315S/C334S/C478S/C488S/C510S); assay: Differential scanning fluorimetry (DSF), melting temperature shift of USP7asoc mutant; type: binding; details: 8 µM protein, 250 µM compound (1:31.25)
T1 construct: (208‐560, C300/315/334/448/478/510S); made in house
T1 sequence (Q93009 with tags, fused parts or gaps C300S/C315S/C334S/C478S/C488S/C510S): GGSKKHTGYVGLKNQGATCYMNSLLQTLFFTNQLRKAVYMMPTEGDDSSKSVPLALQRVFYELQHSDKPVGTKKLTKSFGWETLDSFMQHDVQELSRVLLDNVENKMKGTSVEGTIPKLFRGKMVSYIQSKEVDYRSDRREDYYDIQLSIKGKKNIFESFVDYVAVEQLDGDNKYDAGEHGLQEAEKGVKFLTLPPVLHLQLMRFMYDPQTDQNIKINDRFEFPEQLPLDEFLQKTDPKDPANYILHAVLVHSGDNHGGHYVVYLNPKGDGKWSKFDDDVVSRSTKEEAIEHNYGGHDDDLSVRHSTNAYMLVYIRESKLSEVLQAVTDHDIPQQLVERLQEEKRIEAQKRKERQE
Procedure: USP7asoc only retains the catalytic Cys223 while all the other six cysteines are mutated to serine. DSF was selected for initial assessment since it is an efficient and rapid primary screening method readily available to our lab. […] An important consideration when assessing covalent inhibitors is the time dependence of covalent target occupancy and thus potency, which is determined by the reaction kinetics of the covalent binding event. To allow for drawing conclusions on compounds with slower reaction kinetics, incubation times of 30 min, 4 h, and 24 h at 20°C were chosen for the DSF screen with USP7 (Table 1 and Figures 2 and 3). The threshold at which compounds were considered (de‐)stabilizers was defined at 0.5°C. In parallel, the intrinsic reactivity of a set of representative compounds was evaluated in a glutathione reactivity assay. […] The expression and purification of USP7 catalytic domain (USP7CD) (208‐560) and USP7asoc (active site only cysteine) by using a pET24a(+)_HLT_USP7 construct were performed as previously described. […] For the USP7asoc, six of the seven cysteines are mutated to serines (208‐560, C300/315/334/448/478/510S). All utilized protein sequences are depicted in Supporting Information S2: Table S.3.1. The melting temperatures of USP7 and USP7asoc in the presence or absence of fragments were determined by DSF on a Qiagen Rotor‐Q Model‐5‐Plex HRM real‐time PCR instrument (Qiagen, Hilden, Germany). SYPRO Orange (Life Technologies Corporation, Eugene, OR, USA) was used as a fluorescent dye at a final concentration of 5x. The protein concentration was 8 µM, and the final compound concentration was 250 µM, corresponding to a protein‐to‐compound ratio of 1:31.25. All compounds were dissolved in dimethyl sulfoxide (DMSO) and the proteins in Tris buffer (25 mM Tris pH 8.0, 150 mM NaCl, 5 mM TCEP, 5% (v/v) DMSO). All measurements were performed after 30 min, 4 h, and 24 h of incubation and at least in triplicate. DSF experiments were carried out with a constant heating rate of 270°C/h. The temperature was ramped from 28°C to 60°C–70°C with excitation and emission filters set at 470 nm and 610 nm, respectively. The melting temperatures (T m) of USP7 and USP7asoc were determined from the maxima of the first derivatives of the melting curves in OriginPro2020 (OriginLab, Northampton, MA, USA). The ∆T m was calculated by subtraction of the T m of the protein sample with pure DMSO from the T m of the protein sample mixed with compound. Error propagation was used to average multiple runs for a compound. A compound was considered to be a hit if the shift in the ∆T m was at least 0.50°C [55].

[2] = molecular target: T2, USP7 (Homo sapiens, UniProt Q93009); assay: Differential scanning fluorimetry (DSF), melting temperature shift of USP7; type: binding; details: 8 µM protein, 250 µM compound (1:31.25)
T2 construct: USP7 catalytic domain (USP7CD) (208‐560); made in house
T2 sequence (Q93009 with tags, fused parts or gaps): as the sequence (Q93009 with tags, fused parts or gaps C300S/C315S/C334S/C478S/C488S/C510S) above, with S96C, S111C, S130C, S274C, S284C, S306C counted along it
Text: The influence of the synthesized compounds on the melting temperature (T m) of USP7 and its mutant USP7asoc (active site only cysteine) was investigated by DSF. USP7asoc only retains the catalytic Cys223 while all the other six cysteines are mutated to serine. DSF was selected for initial assessment since it is an efficient and rapid primary screening method readily available to our lab.
An important consideration when assessing covalent inhibitors is the time dependence of covalent target occupancy and thus potency, which is determined by the reaction kinetics of the covalent binding event. To allow for drawing conclusions on compounds with slower reaction kinetics, incubation times of 30 min, 4 h, and 24 h at 20°C were chosen for the DSF screen with USP7 (Table 1 and Figures 2 and 3). The threshold at which compounds were considered (de‐)stabilizers was defined at 0.5°C. In parallel, the intrinsic reactivity of a set of representative compounds was evaluated in a glutathione reactivity assay. […] Data obtained from the GSH reactivity studies are shown in Supporting Information S2: Table S2.1 and Figures S2.1–2.3.
The melting temperatures of USP7 and USP7asoc in the presence or absence of fragments were determined by DSF on a Qiagen Rotor‐Q Model‐5‐Plex HRM real‐time PCR instrument (Qiagen, Hilden, Germany). SYPRO Orange (Life Technologies Corporation, Eugene, OR, USA) was used as a fluorescent dye at a final concentration of 5x. The protein concentration was 8 µM, and the final compound concentration was 250 µM, corresponding to a protein‐to‐compound ratio of 1:31.25. All compounds were dissolved in dimethyl sulfoxide (DMSO) and the proteins in Tris buffer (25 mM Tris pH 8.0, 150 mM NaCl, 5 mM TCEP, 5% (v/v) DMSO). All measurements were performed after 30 min, 4 h, and 24 h of incubation and at least in triplicate. DSF experiments were carried out with a constant heating rate of 270°C/h. The temperature was ramped from 28°C to 60°C–70°C with excitation and emission filters set at 470 nm and 610 nm, respectively. The melting temperatures (T m) of USP7 and USP7asoc were determined from the maxima of the first derivatives of the melting curves in OriginPro2020 (OriginLab, Northampton, MA, USA). The ∆T m was calculated by subtraction of the T m of the protein sample with pure DMSO from the T m of the protein sample mixed with compound. Error propagation was used to average multiple runs for a compound. A compound was considered to be a hit if the shift in the ∆T m was at least 0.50°C [55].

[3] = molecular target: T3, USP7cd (USP7 catalytic domain) (Homo sapiens, UniProt Q93009); assay: Ub-AMC enzyme activity assay, IC50 determination; type: biochemical; details: 10 nM USP7cd, 500 nM Ub-AMC, 24 h pre-incubation at 20°C
T3 construct: USP7 catalytic domain (USP7CD) (208‐560); made in house
T3 sequence (Q93009 with tags, fused parts or gaps): as the sequence (Q93009 with tags, fused parts or gaps C300S/C315S/C334S/C478S/C488S/C510S) above, with S96C, S111C, S130C, S274C, S284C, S306C counted along it
Procedure: Therefore, USP7 was incubated for 24 h with ten different compound concentrations, and IC50 values were then obtained with a fluorescent DUB substrate (Ub‐AMC) (Figure 9A–F). The pre‐incubation times were chosen to account for the slow covalent binding kinetics observed in the previous experiments.
The cleavage activity of USP7cd in the presence or absence of inhibitors was measured using Ubiquitin‐Aminomethylcoumarin (Ub‐AMC) (Enzo Life Sciences GmbH, Lörrach, Germany) as a fluorogenic substrate. The fluorescence was monitored using the CLARIOstar plate reader (BMG Labtech GmbH, Ortenberg, Germany) at 25°C at 360 nm excitation and 460 nm emission wavelengths. […] Each measurement was performed at least twice in duplicate. […] Ub‐AMC was added to a final concentration of 500 nM, and the fluorescence was measured after 1 h. The normalized dose‐response semi‐logarithmic curves were fitted using OriginPro2021 and the four‐parameter logistic function.
Different concentrations of compounds were pre-incubated with USP7 for 24 h at 20 °C in a rotating shaker in 25 mM Tris pH 8.0, 150mM NaCl, 5 mM TCEP supplemented with 0.2 mg/mL bovine serum albumin (BSA). Fluorescence was measured after 1 h of the addition of Ub-AMC. The dose response semi-logarithmic curves were fitted using OriginPro2021 and the four-parameter logistic function.

[4] = molecular target: T2, USP7; parameters: method as in PMID 40165995; details: hit from earlier screen of covalent kinase inhibitor library; cited from earlier work
[5] = molecular target: T2, USP7; parameters: method as in PMID 40165995; details: 24 h incubation at 20°C, ratio 1:31.25; spectra reported previously; cited from earlier work
[6] = molecular target: T4, USP7asoc (Homo sapiens, UniProt Q93009, C300S/C315S/C334S/C478S/C488S/C510S); parameters: method as in PMID 40165995; details: 24 h incubation at 20°C, ratio 1:31.25; spectra reported previously; cited from earlier work
T4 construct: (208‐560, C300/315/334/448/478/510S); made in house
T4 sequence (Q93009 with tags, fused parts or gaps C300S/C315S/C334S/C478S/C488S/C510S): as the sequence (Q93009 with tags, fused parts or gaps C300S/C315S/C334S/C478S/C488S/C510S) above

[7] = molecular target: T2, USP7; assay: Intact protein MS (UHPLC-ESI-MS), covalent modification of USP7; type: binding; details: 24 h incubation at 20°C, protein-to-compound ratio 1:31.25
Procedure: The DSF results described above were validated by UHPLC‐ESI‐MS to verify possible covalent binding through a corresponding mass shift. Intact protein MS is an important screening method in irreversible‐covalent hit identification and is especially suitable for covalent fragment‐based drug discovery (FBDD). It allows for the identification of covalent binders by detecting covalent protein‐compound adducts, thus making use of the stability of the covalent bond.
USP7 was prepared in Tris buffer (25 mM Tris pH 8.0, 150 mM NaCl, 5 mM TCEP) with a protein‐to‐compound ratio of 1:31.25 and 5% (v/v) DMSO. The protein‐compound mixtures were all incubated at 20°C for 24 h on a rotating shaker. The analysis of intact protein mass was carried out using UHPLC‐ESI‐MS measurements, with data acquisition and data analysis as previously described.

[8] = molecular target: T4, USP7asoc; assay: Intact protein MS (UHPLC-ESI-MS), covalent modification of USP7asoc; type: binding; details: 24 h incubation at 20°C, protein-to-compound ratio 1:31.25
Procedure: The DSF results described above were validated by UHPLC‐ESI‐MS to verify possible covalent binding through a corresponding mass shift. Intact protein MS is an important screening method in irreversible‐covalent hit identification and is especially suitable for covalent fragment‐based drug discovery (FBDD). It allows for the identification of covalent binders by detecting covalent protein‐compound adducts, thus making use of the stability of the covalent bond. USP7 was prepared in Tris buffer (25 mM Tris pH 8.0, 150 mM NaCl, 5 mM TCEP) with a protein‐to‐compound ratio of 1:31.25 and 5% (v/v) DMSO. The protein‐compound mixtures were all incubated at 20°C for 24 h on a rotating shaker. The analysis of intact protein mass was carried out using UHPLC‐ESI‐MS measurements, with data acquisition and data analysis as previously described.

| ∆T m ± SD USP7asoc ([1]; 30 min incubation at 20°C) | ∆T m ± SD USP7asoc ([1]; 4 h incubation at 20°C) | ∆T m ± SD USP7 ([2]; 30 min incubation at 20°C) | ∆T m ± SD USP7 ([2]; 4 h incubation at 20°C) | IC50 ([3]; read-out: IC50 USP7cd) | IC50 ([3]; supplement table, read-out: Biological Activity (IC50)) | ∆T m ± SD USP7asoc ([1]; 24 h incubation at 20°C) | ∆T m ± SD USP7 ([2]; 24 h incubation at 20°C) | Structure (SMILES) | temperature decrease with USP7 in DSF [4] | protein species in deconvoluted mass spectrum of USP7 [5] | protein species in deconvoluted mass spectrum of USP7asoc [6] | protein species in deconvoluted mass spectrum of USP7 [7] | protein species in deconvoluted mass spectrum of USP7asoc [8] |
| --- | --- | --- | --- | --- | --- | --- | --- | --- | --- | --- | --- | --- | --- |
| –0.10 ± 0.09 °C | –0.25 ± 0.09 °C | –0.13 ± 0.08 °C | –0.23 ± 0.06 °C | 43.3 µM and 43 µM | 48.2 ± 6.89 µM | – | – | Cn1cc(-c2cccc3cnc(Nc4nc(F)ccc4[N+](=O)[O-])cc23)cn1 [7a, N‐(6‐Fluoro‐3‐nitropyridin‐2‐yl)‐5‐(1‐methyl‐1H‐pyrazol‐4‐yl)isoquinolin‐3‐amine] | –4 °C | mono‐arylated protein species as the main peak | single covalent modification as the main peak | – | – |
| 0.10 ± 0.27 °C | 0.10 ± 0.09 °C | 0.20 ± 0.09 °C | 0.45 ± 0 °C | – | – | 0.10 ± 0.09 °C | 0.20 ± 0.09 °C | Cn1cc(-c2cccc3cnc(Nc4nc(Cl)ccc4[N+](=O)[O-])cc23)cn1 [8a, N‐(6‐Chloro‐3‐nitropyridin‐2‐yl)‐5‐(1‐methyl‐1H‐pyrazol‐4‐yl)isoquinolin‐3‐amine] | – | unmodified and mono‐arylated protein species were visible with nearly the same intensity | unmodified protein species as the main peak | – | – |
| –0.30 ± 0 °C | 0.35 ± 0.09 °C | – | –0.10 ± 0.09 °C | – | – | 0.45 ± 0 °C | 0.15 ± 0.09 °C | Cn1ccc(-c2cccc3cnc(Nc4nc(Cl)ccc4[N+](=O)[O-])cc23)c1 [8b, N‐(6‐Chloro‐3‐nitropyridin‐2‐yl)‐5‐(1‐methyl‐1H‐pyrrol‐3‐yl)isoquinolin‐3‐amine] | – | – | – | unmodified protein species was dominant with an additional smaller signal of the mono‐arylated species | only showed unmodified protein for USP7asoc |
| 0.30 ± 0 °C | 0.35 ± 0.09 °C | 0.00 ± 0.12 °C | 0.15 ± 0 °C | – | – | 0.35 ± 0.04 °C | 0.20 ± 0.09 °C | O=[N+]([O-])c1ccc(F)nc1Nc1cc2c(-c3ccc(-c4cccnc4)cc3)cccc2cn1 [7h, N‐(6‐Fluoro‐3‐nitropyridin‐2‐yl)‐5‐[4‐(pyridin‐3‐yl)phenyl]isoquinolin‐3‐amine] | – | – | – | the unmodified protein species was again dominant; also recorded: unmodified USP7 and USP7asoc as the main peak | the unmodified protein species was again dominant; also recorded: unmodified USP7 and USP7asoc as the main peak |
